Like-named read-outs stand apart in the source and are kept apart here.
Legend:
[1] = tested on: larvae of the mustard beetle (Phaedon cochleariae); assay: Phaedon test (PHAECO spray treatment); assay type: in vivo; conditions: 168 h, 100 g/ha, after 7 days, read-out: activity in %
Protocol: (§1) Solvents: 78.0 parts by weight of acetone • • 1.5 parts by weight of dimethylformamide
(§2) Emulsifier: 0.5 part by weight of alkylaryl polyglycol ether
(§3) An appropriate preparation of active compound is prepared by mixing 1 part by weight of active compound with the stated amounts of solvent and emulsifier and diluting the concentrate with emulsifier-containing water to the desired concentration.
After 7 days, the activity in % is ascertained. Here, 100% means that all of the beetle larvae have been killed; 0% means that no beetle larvae have been killed.

[2] = log P determination by HPLC on reversed-phase columns (EEC Directive 79/831 Annex V.A8); assay type: physicochemical; conditions: pH 2.7
Protocol: Determination by LC-MS in the acidic range takes place at a pH of 2.7 using 0.1% aqueous formic acid and acetonitrile (containing 0.1% formic acid) as eluents, with a linear gradient from 10% acetonitrile to 95% acetonitrile.
Calibration was carried out using unbranched alkan-2-ones (having 3 to 16 carbon atoms) with known log P values (the log P values are determined from the retention times by linear interpolation between two successive alkanones).

[3] = tested on: caterpillars of the armyworm (Spodoptera frugiperda); assay: Spodoptera frugiperda test (SPODFR spray treatment); assay type: in vivo; conditions: 168 h, read-out: activity in %
Protocol: as §1, §2, §3
Leaf discs of maize (Zea mays) are sprayed with a preparation of active compound at the desired concentration and, after drying, are populated with caterpillars of the armyworm (Spodoptera frugiperda).
After 7 days, the activity in % is ascertained. Here, 100% means that all of the caterpillars have been killed; 0% means that no caterpillar has been killed.

[4] = reversed-phase C18 HPLC column, HPLC on reversed-phase columns (C 18), EEC Directive 79/831 Annex V.A8, read-out: logP
[5] = HPLC on reversed-phase columns (C 18), EEC Directive 79/831 Annex V.A8, read-out: logP

SMILES | chromatographic logP [2] | pest or weed control at 100 g/ha ([3]; 100 g/ha, after 7 days) [%] | other results
Cc1cc(C#N)cc(C(=O)NCC#N)c1NC(=O)c1cc(Cn2cc(C(F)(F)F)nn2)nn1-c1ncccc1Cl [Example 186] | 2.32 |  | pest or weed control at 100 g/ha [1]: 100%
Cc1cc(C#N)cc(C(=O)NC(C)(C)C)c1NC(=O)c1cc(Cn2ncc(C3CC3)n2)nn1-c1ncccc1Cl [Example 58] | 3.12 | 100 | 
Cc1cc(Cl)cc(C(=O)NC(C)(C)C)c1NC(=O)c1cc(Cn2ncc(C3CC3)n2)nn1-c1ncccc1Cl [Example 46] | 3.6 |  | pest or weed control at 100 g/ha [1]: 100%
Cc1cc(C#N)cc(C(=O)NC2CC2)c1NC(=O)c1cc(Cn2cc(C(F)(F)F)nn2)nn1-c1ncccc1Cl [Example 179] | 2.5 |  | 
CNC(=O)c1cc(C#N)cc(C)c1NC(=O)c1cc(Cn2ncc(C3CC3)n2)nn1-c1ncccc1Cl [Example 37] | 2.28 |  | pest or weed control at 100 g/ha [1]: 100%
CNC(=O)c1cc(Cl)cc(C)c1NC(=O)c1cc(Cn2cc(C(C)C)nn2)nn1-c1ncccc1Cl [Example 14] | 2.29 |  | pest or weed control at 100 g/ha [1]: 83%
CNC(=O)c1cc(C#N)cc(C)c1NC(=O)c1cc(Cn2nnc3cc(Cl)c(Cl)cc32)nn1-c1ncccc1Cl [Example 80] | 2.96 | 100 | 
Cc1cc(C#N)cc(C(=O)NC(C)(C)C)c1NC(=O)c1cc(Cn2ncc(C(F)(F)F)n2)nn1-c1ncccc1Br [Example 10] |  | 100 | chromatographic logP [2, 4]: 3.04
Cc1cc(F)cc(C(=O)NC(C)(C)C)c1NC(=O)c1cc(Cn2ncc(C(F)(F)F)n2)nn1-c1ncccc1Cl [Example 171] | 4.02 | 100 | 
CNC(=O)c1cc(C#N)cc(C)c1NC(=O)c1cc(Cn2nc3ccc(F)cc3n2)nn1-c1ncccc1Cl [Example 83] | 2.55 | 100 | 
CNC(=O)c1cc(Cl)cc(C)c1NC(=O)c1cc(Cn2nnc3cc(C)ccc32)nn1-c1ncccc1Cl [Example 69] | 2.63 | 100 | 
Cc1cc(Cl)cc(C(=O)NC(C)C)c1NC(=O)c1cc(Cn2ccnn2)nn1-c1ncccc1Cl [Example 116] | 2.12 |  | 
Cc1cc(C#N)cc(C(=O)NC(C)(C)C)c1NC(=O)c1cc(Cn2nc3c(Cl)c(Cl)c(Cl)c(Cl)c3n2)nn1-c1ncccc1Cl [Example 105] | 5.13 |  | 
CNC(=O)c1cc(Cl)cc(C)c1NC(=O)c1cc(Cn2nc3ccc(C)cc3n2)nn1-c1ncccc1Cl [Example 73] | 3.05 |  | 
CNC(=O)c1cc(C#N)cc(C)c1NC(=O)c1cc(Cn2nnc3ccc(F)cc32)nn1-c1ncccc1Cl [Example 82] | 2.24 | 100 | 
CNC(=O)c1cc(Cl)cc(C)c1NC(=O)c1cc(Cn2nnc3cc(Cl)ccc32)nn1-c1ncccc1Cl [Example 68] | 2.9 | 100 | 
Cc1cc(C#N)cc(C(=O)NC(C)(C)C)c1NC(=O)c1cc(Cn2cc(-c3ccccc3Cl)nn2)nn1-c1ncccc1Cl [Example 56] | 3.45 | 83 | 
Cc1cc(C#N)cc(C(=O)NC(C)(C)C)c1NC(=O)c1cc(Cn2nnc3c(Cl)c(Cl)c(Cl)c(Cl)c32)nn1-c1ncccc1Cl [Example 104] | 4.64 |  | 
Cc1cc(C#N)cc(C(=O)NC(C)(C)C)c1NC(=O)c1cc(Cn2cc(C(C)C)nn2)nn1-c1ncccc1Cl [Example 51] | 2.74 |  | 
Cc1cc(Cl)cc(C(=O)NC(C)(C)C)c1NC(=O)c1cc(Cn2ncc(C(C)C)n2)nn1-c1ncccc1Cl [Example 47] | 3.86 |  | 
CNC(=O)c1cc(Cl)cc(C)c1NC(=O)c1cc(Cn2cc(C(C)(C)C)nn2)nn1-c1ncccc1Cl [Example 15] | 2.53 |  | 
Cc1cc(Cl)cc(C(=O)NC(C)(C)C)c1NC(=O)c1cc(Cn2ncc(C(F)(F)C(F)(F)C(F)(F)F)n2)nn1-c1ncccc1Cl [Example 374] |  |  | pest or weed control at 100 g/ha [3]: 100%; chromatographic logP [2, 5]: 4.65
Cc1cc(C#N)cc(C(=O)NC(C)(C)C)c1NC(=O)c1cc(Cn2cc(C(F)(F)F)nn2)nn1-c1ccccc1Cl [Example 292] |  | 100 | chromatographic logP [2, 4]: 3.48
Cc1cc(C#N)cc(C(=O)NC(C)(C)C)c1NC(=O)c1cc(Cn2cc(C(C)(C)C)nn2)nn1-c1ncccc1Cl [Example 52] | 3.02 |  | 
CNC(=O)c1cc(Cl)cc(C)c1NC(=O)c1cc(Cn2nnc3c(Cl)c(Cl)c(Cl)c(Cl)c32)nn1-c1ncccc1Cl [Example 84] | 4.19 | 100 | 

SMILES | chromatographic logP [2] | pest or weed control at 100 g/ha ([3]; 100 g/ha, after 7 days) [%] | other results
CNC(=O)c1cc(Cl)cc(C)c1NC(=O)c1cc(Cn2ncc(C(C)(C)C)n2)nn1-c1ncccc1Cl [Example 23] | 3.2 | 83 | 
Cc1cc(I)cc(C(=O)NC2CCC2)c1NC(=O)c1cc(Cn2ncc(C(F)(F)F)n2)nn1-c1ncccc1Cl [Example 164] | 3.89 |  | pest or weed control at 100 g/ha [1]: 100%
Cc1cc(Cl)cc(C(=O)NC2CC2)c1NC(=O)c1cc(Cn2cc(C(F)(F)F)nn2)nn1-c1ncccc1Cl [Example 188] | 2.82 |  | 
Cc1cc(Cl)cc(C(=O)NC(C)(C)C)c1NC(=O)c1cc(Cn2ncc(-c3ccc(Cl)cc3)n2)nn1-c1ncccc1Cl [Example 49] | 4.58 |  | 
CNC(=O)c1cc(C#N)cc(C)c1NC(=O)c1cc(Cn2nc3c(Cl)c(Cl)c(Cl)c(Cl)c3n2)nn1-c1ncccc1Cl [Example 93] | 4.24 |  | 
CNC(=O)c1cc(Cl)cc(C)c1NC(=O)c1cc(Cn2ncc(C(C)C)n2)nn1-c1ncccc1Cl [Example 22] | 2.85 | 100 | 
Cc1cc(Cl)cc(C(=O)NC(C)(C)C)c1NC(=O)c1cc(Cn2cc(C(F)(F)F)nn2)nn1-c1ncccc1Cl [Example 191] | 3.44 | 100 | 
CNC(=O)c1cc(C#N)cc(C)c1NC(=O)c1cc(Cn2cc(-c3ccccc3Cl)nn2)nn1-c1ncccc1Cl [Example 35] | 2.63 | 100 | 
CNC(=O)c1cc(C#N)cc(C)c1NC(=O)c1cc(Cn2nnc3cc([N+](=O)[O-])ccc32)nn1-c1ncccc1Cl [Example 103] | 2.34 | 100 | 
Cc1cc(Cl)cc(C(=O)NC(C)(C)C)c1NC(=O)c1cc(Cn2ncc(C(C)(C)C)n2)nn1-c1ncccc1Cl [Example 48] | 4.25 |  | 
O=C(NC1CC1)c1cc(Cl)cc(Cl)c1NC(=O)c1cc(Cn2cc(C(F)(F)F)nn2)nn1-c1ncccc1Cl [Example 199] | 2.89 | 100 | 
CC(C)NC(=O)c1cc(Cl)cc(Cl)c1NC(=O)c1cc(Cn2cc(C(F)(F)F)nn2)nn1-c1ncccc1Cl [Example 200] | 3.1 | 100 | 
CCNC(=O)c1cc(C#N)cc(C)c1NC(=O)c1cc(Cn2cc(C(F)(F)C(F)(F)C(F)(F)F)nn2)nn1-c1ncccc1Cl [Example 330] |  |  | chromatographic logP [2, 5]: 3.24
CNC(=O)c1cc(Cl)cc(C)c1NC(=O)c1cc(Cn2nnc3ccc(F)cc32)nn1-c1ncccc1Cl [Example 78] | 2.57 | 100 | 
CNC(=O)c1cc(Cl)cc(C)c1NC(=O)c1cc(Cn2nc3ccccc3n2)nn1-c1ncccc1Cl [Example 67] | 2.75 | 100 | 
Cc1cc(C#N)cc(C(=O)NC(C)(C)C)c1NC(=O)c1cc(Cn2ncc(C(C)C)n2)nn1-c1ncccc1Cl [Example 59] | 3.38 |  | 
CNC(=O)c1cc(Cl)cc(C)c1NC(=O)c1cc(Cn2nc3c(Cl)c(Cl)c(Cl)c(Cl)c3n2)nn1-c1ncccc1Cl [Example 85] | 4.66 |  | 
CNC(=O)c1cc(Cl)cc(C)c1NC(=O)c1cc(Cn2nnc3cc(Cl)c(Cl)cc32)nn1-c1ncccc1Cl [Example 76] | 3.33 |  | 
CNC(=O)c1cc(Cl)cc(C)c1NC(=O)c1cc(Cn2cc(C3CC3)nn2)nn1-c1ncccc1Cl [Example 13] | 2.14 |  | 
Cc1cc(C#N)cc(C(=O)NC(C)(C)C)c1NC(=O)c1cc(Cn2nnc3cc(Br)ccc32)nn1-c1ncccc1Cl [Example 106] | 3.31 | 100 | 
Cc1cc(Br)cc(C(=O)NC(C)C2CC2)c1NC(=O)c1cc(Cn2ncc(C(F)(F)F)n2)nn1-c1ncccc1Cl (centres unmarked) [Example 173] | 3.87 |  | 
CNC(=O)c1cc(C#N)cc(C)c1NC(=O)c1cc(Cn2cc(-c3ccc(F)cc3)nn2)nn1-c1ncccc1Cl [Example 32] | 2.41 | 100 | 
Cc1cc(C#N)cc(C(=O)NC(C)(C)C)c1NC(=O)c1cc(Cn2ncc(C(C)(C)C)n2)nn1-c1ncccc1Cl [Example 60] | 3.74 |  | 
CNC(=O)c1cc(Cl)cc(C)c1NC(=O)c1cc(Cn2nnc3ccccc32)nn1-c1ncccc1Cl [Example 66] | 2.38 | 100 | 
Cc1cc(C#N)cc(C(=O)NC(C)(C)C)c1NC(=O)c1cc(Cn2nnc3cc([N+](=O)[O-])ccc32)nn1-c1ncccc1Cl [Example 115] | 3.03 | 100 | 

— patent publication US8536202B2, “Triazole-substituted anthranilamides as pesticides” (Bayer Cropscience AG, priority 2010, dated 2013)
